{"source": "patent US10908171B2", "about": "“Additive channels” (Emulate Inc., priority 2016, dated 2021)", "molecules": {"B1": {"name": "sCD40L: soluble CD40 ligand (CD154); recombinant human sCD40 Ligand (protein, UniProt P29965 47-261, looked up)", "extracellular domain": "HRRLDKIEDERNLHEDFVFMKTIQRCNTGERSLSLLNCEEIKSQFEGFVKDIMLNKEETKKENSFEMQKGDQNPQIAAHVISEASSKTTSVLQWAEKGYYTMSNNLVTLENGKQLTVKRQGLYYIYAQVTFCSNREASSQAPFIASLCLKSPGRFERILLRAANTHSSAKPCGQQSIHLGGVFELQPGASVFVNVTDPSQVSHGTGFTSFGLLKL", "modifications": "extracellular domain"}}, "key": {"[1]": {"test_system": "ICAM1", "experiment": "ICAM1 immunostaining of endothelium", "format": "cell-based, human", "details": "TNF-α stimulated vs control", "method": "ICAM1 is shown with examples identified by white arrows. One example of a DAPI stained nuclei is shown inside of a white circle.\nTNF-alpha Stimulation: In some experiment endothelial cells were stimulate with 50 ng/ml of TNF (Sigma) for 6 hours in order to induce vascular inflammation before blood perfusion."}, "[2]": {"test_system": "platelets", "experiment": "Vessel-On-Chip platelet coverage / aggregation, fluorescence imaging of CD41-labelled platelets in perfused re-calcified blood", "format": "cell-based, human", "details": "for platelet coverage: endothelial pre-treatment TNF-α 50 ng/ml 6 hours, or blood with sCollagen 10 μg/ml, vs blood alone; for platelet aggregate formation / platelet coverage: hu5C8 240 μg/ml, sCD40L 10 ng/ml, alone or combined, 60 μl/minute, compared to untreated blood", "method": "(§1) Briefly, human blood was drawn in citrate buffer and used within 4 hours. Platelets were stained using fluorescently labeled non-blocking antibodies for the platelet surface marker CD41 and low dosages of fluorescent fibrinogen were added in order to visualize fibrin deposition. Blood was re-calcified in order to re-establish the full coagulation potential, then introduced in the biomimetic vessel-on-chip from the main inlet (embodiments of inlets shown in FIG. 18A-1, FIG. 18A-2 and FIG. 19C). The outlet of the chip was connected to a pulling syringe pump with a system of tubing and connectors made of medical grade silicon that excludes any metal components or potential causes of platelet activation (FIG. 5A).\nAfter 14 minutes of perfusion, the flow was interrupted and the chips were immediately imaged via fluorescence microscopy (FIG. 18C and FIG. 19D). In healthy conditions, endothelial cells will provide an antithrombotic surface where blood can flow smoothly, and indeed we detected minimal platelet adhesion or fibrin deposition in our vessel-on-chip after blood perfusion in control conditions, FIG. 18C, Blood.\nExperiments with Blood: Blood Samples And Endothelium: Citrated human blood (Research Blood Components, Cambridge, Mass.) was used within 4 hours of a blood draw in order to minimize pre-analytical effects on platelet function. Before every experiment, each one of the endothelialized channels (i.e. microchannels having an endothelial cell layer) was inspected via light microscopy. Samples showing any sign of discontinuity in the endothelium were discarded. […] USA) was at room temperature for 20 minutes.\nPlatelets: Platelets were labeled with human CD41-PE antibody (10 μL/ml, Invitrogen) directly added to the blood and incubated at room temperature for 5 minutes.\n(§2) Adding Blood to a Vessel-On-Chip And Flow Conditions: A medical grade plastic reservoir was mounted on the chip, then 800 μl of the blood sample was pipetted into the reservoir. The chip was perfused with the blood by withdrawing it at a rate of 60 μl/minute using a syringe pump. The citrated blood was re-calcified 2 minutes after the beginning of each experiment by adding 100 μl/ml of a solution containing 100 mM calcium chloride and 75 mM magnesium chloride to the blood to permit calcium- and magnesium-dependent platelet function and coagulation.\n(§3) Fluorescence Image analysis: Chips perfused with blood samples were immediately imaged via fluorescence microscopy (Olympus IX83, 10× objective UPLFLN10X2, Orca-Flash 4.0 CMOS Camera). Each chamber was inspected along its entire length and 5 images (about 0.25 cm) were captured from the central area of the chamber. Image processing and quantification was performed with an automatic macro compiled in ImageJ and numerical values corresponding to platelet coverage or fibrin florescence were collected and statistically analyzed in Graphpad Prism V7.\n(§4) Platelet Coverage: A percentage of signal coverage (or Platelet coverage) was computed from the binary image as the ratio of bright pixels to the total number of pixels in the image. Image processing and quantification was performed with an automatic macro compiled in ImageJ in order to ensure unbiased signal measurements. Numerical values corresponding to platelet coverage or fibrin fluorescence (signal intensity) were collected and statistically analyzed in Graphpad Prism V7."}, "[3]": {"test_system": "thrombin anti-thrombin complex (TAT)", "experiment": "Thrombin anti-thrombin (TAT) ELISA in plasma of chip effluent", "format": "cell-based, human", "details": "for levels of TAT: plasma from blood flowing out of the chip, vs untreated blood", "method": "Thrombin converts fibrinogen into fibrin during clot formation, and anti-thrombin plays a role in maintaining homeostasis by inhibiting the effect of thrombin. Formation of TAT in the microdevice confirms that local and intrinsic generation of thrombin, a potent platelet agonist, occurs in the model and that counter regulatory mechanisms for coagulation are retained. Thus, blood sampled from the Vessel-On-Chip was analyzed for thrombin anti-thrombin complex (TAT), an accepted clinical biomarker for procoagulation^48,49. TAT refers to a factor released upon activation of the coagulation cascade and one of the biomarkers associated with thrombotic events occurring in patients affected with deep vein thrombosis (DVT) or Systemic lupus erythematosus (SLE)^45,46. An enzyme-linked immunosorbent assay (ELISA) was used to quantify the thrombin anti-thrombin complex (TAT).\nThrombin-Anti Thrombin (TAT) Measurement via ELISA: Thrombin Anti-Thrombin (TAT) levels were analyzed in plasma from blood flowing out of the chip device by removing a sample from the outflow port. Thus TAT levels were evaluated in sample effluents collected from the outflow port of the chip using the Human TAT ELISA Kit (Siemens Healthineers) according to the user manual.\nBlood sampled from the Vessel-On-Chip outflow port was analyzed for thrombin anti-thrombin complex (TAT), a factor released upon activation of the coagulation cascade and one of the biomarkers associated with thrombotic events occurring in patients affected with deep vein thrombosis (DVT) or SLE^45,46. TAT is an accepted clinical biomarker for procoagulation^48,49. An enzyme-linked immunosorbent assay (ELISA) was used to quantify the thrombin anti-thrombin complex (TAT)."}, "[4]": {"test_system": "fibrin", "experiment": "Vessel-On-Chip fibrin deposition, fluorescent fibrinogen imaging", "format": "cell-based, human", "details": "for fibrin signal intensity: endothelial pre-treatment TNF-α 50 ng/ml 6 hours, or blood with sCollagen 10 μg/ml, vs blood alone; for fibrin deposition on the endothelium: hu5C8 240 μg/ml, sCD40L 10 ng/ml, alone or combined, compared to untreated blood", "method": "as §1, §2\nVisualizing Fibrin Deposition: When analyzing the formation of fibrin, 10 μg/ml of fluorescently labeled fibrinogen (Alexa 488, Invitrogen) was also added to the blood. While fluorescent fibrinogen was barely detected as a diffused fluorescence, fibrin deposition on inflamed cells and sparse clots was easily distinguished since fibrin formed filamentous structures produce a signal intensity that is clearly observed above a background threshold.\nas §3, §4"}, "[5]": {"test_system": "FcγRIIa", "experiment": "hu5C8-mediated thrombosis on-chip, FcγRIIa dependence (platelet coverage, fibrin deposition, TAT)", "format": "cell-based, human", "details": "with sCD40L, IV.3 1 μg/ml block or IgG2σ variant in place of hu5C8", "source_text": "Recent studies conducted on humanized mice expressing the human Fcγ receptors (FCGR2A) have shown that this receptor plays a role in thrombosis leading to the IC-mediated toxicity^12,16,21. […] In order to investigate if the IC5c8-induced thrombosis that we observed in our vessel-on-chip system also relies on an Fc-mediated mechanism, we used two different tool molecules: IgG2σ and IV.3 (FIG. 25A). The IgG2σ variant of hu5C8 has an engineered Fc region^48 that eliminates affinity for the FcγRIIa, while the monoclonal antibody IV.3 is a blocking antibody binding to FcγIIa. Briefly, equimolar concentrations of IgG2σ […] hu5c8 were incubated with […] sCD40L for 20 minutes to form ICIgG2σ or IC5c8, respectively.\nSome of the blood samples were treated with IV.3 (1 μg/ml) for 10 minutes to block the FcγRIIa, and then incubated for 20 more minutes with IC5c8. Finally, blood alone (control) or blood incubated with IC5c8, ICIgG2σ or IV.3 was perfused through the biomimetic microfluidic-on-chip for about 10 minutes. We tested 15 donors and all the tested conditions described above were tested in duplicates and analyzed as percentage of platelet coverage based on fluorescence microscopic imaging (FIG. 25B). Five of the donors were also tested for fibrin deposition (FIG. 25C). Finally, effluents plasma obtained from a total of 7 of the donors (including the 5 mentioned before) were used to assess TAT via ELISA (FIG. 25D). […]\nBlood from several human donors were aliquoted into groups for the following treatments: controls (PBS), sCD40L, combined hu5C8/sCD40L, combined hu5C8 (IgG2σ/sCD40L combined, and combined hu5C8/sCD40L/IV.3. Each condition was tested with a minimum of 3 donors to a maximum of 15 donors, and all conditions were tested in duplicates and analyzed for platelet coverage (FIG. 25B), fibrin deposition (FIG. 25C), or increased formation of TAT measured in the eluates (FIG. 25D). Platelet coverage and fibrin deposition following treatment were normalized and reported as fold-increase over untreated control values for each donor."}, "[6]": {"test_system": "re-calcified blood", "experiment": "On-chip anticoagulation of outflowing blood through the anticoagulant port", "design": "species or system human", "details": "introduced through the anticoagulant port; vs chips without anticoagulant port", "source_text": "In order to functionally test the system, re-calcified blood was perfused through the inlet while anticoagulant, e.g. citrate buffer, was introduced online from the port situated next to the outflow port. Thus, blood obtained from the effluent of chips equipped with the anticoagulant port or without anticoagulant port were compared (FIG. 6). From a qualitative point of view the difference was striking.\nIn order to functionally test the additive channel (i.e. microfluidic chamber(s)) attached to the outflow port of a Vessel-On-Chip, re-calcified blood was perfused through the inlet port while citrate was introduced online from a port situated next to the outflow port, flowing through the additive channel. Thus, blood obtained from the effluent of chips equipped with the anticoagulant port (additive channel) or without anticoagulant port were compared (FIG. 6). From a qualitative point of view the difference was striking."}, "[7]": {"details": "lupus and/or Crohn's disease; cited from earlier work"}, "[8]": {"details": "Eptifibatide 2 μg/ml, endothelium inflamed with TNF-α, n=4"}}, "note": "Entries after “also recorded” stand apart in the source; their conditions may differ. Structures can show the parent of a compound that is named as a salt. Positions of bridges follow the written chain, without caps; N, C: chain ends. Non-standard residues stand in square brackets, D forms with d. Residues, ends and D or L forms follow the SMILES beside them. hArg = N=C(N)NCCCC[C@H](N)C(=O)O; Mpa = O=C(O)CCS", "data": [{"molecule": "TNF-α", "values": [{"measurement": "expression of ICAM1 in the endothelium", "setting": "[1]", "value": "increased expression; also recorded: higher"}, {"measurement": "platelet coverage", "setting": "[2]", "value": "increased areas of platelet coverage"}, {"measurement": "levels of TAT", "setting": "[3]", "value": "significantly increased; also recorded: elevated levels of TAT"}, {"measurement": "fibrin signal intensity", "setting": "[4]", "value": "increased"}]}, {"molecule": "hu5C8 (IgG2σ): IgG2σ variant of hu5C8 with an engineered Fc region that eliminates affinity for FcγRIIa", "values": [{"measurement": "hu5C8-mediated thrombosis on-chip (platelet coverage, fibrin deposition, TAT)", "setting": "[5]", "value": "did not show signs of thrombosis in any of the endpoints"}, {"measurement": "hu5C8-mediated thrombosis on-chip (platelet coverage, fibrin deposition, TAT)", "setting": "[5]; listed as IgG2σ", "value": "suppressed"}, {"measurement": "hu5C8-mediated thrombosis on-chip (platelet coverage, fibrin deposition, TAT)", "setting": "[5]; listed as hu5C8-IgG2σ", "value": "not detected"}]}, {"molecule": "sCollagen: soluble collagen (Soluble Calf Skin, Type I), a standard platelet activator", "values": [{"measurement": "platelet coverage", "setting": "[2]", "value": "increased areas of platelet coverage"}, {"measurement": "levels of TAT", "setting": "[3]", "value": "minimally increased; also recorded: elevated levels of TAT"}, {"measurement": "fibrin signal intensity", "setting": "[4]", "value": "increased"}]}, {"molecule": "O=C(O)CC(O)(CC(=O)O)C(=O)O", "note": "[sodium citrate]", "values": [{"measurement": "state of blood collected from the effluent", "setting": "[6]", "value": "soluble (not clotted) blood"}]}, {"molecule": "hu5C8: humanized monoclonal IgG1 antibody against CD40L, alternatively named anti-CD154", "values": [{"measurement": "platelet aggregate formation / platelet coverage", "setting": "[2]", "value": "no significant treatment-related effects"}, {"measurement": "thromboembolism and cardiovascular events during clinical trials", "setting": "[7]", "value": "multiple incidents of thromboembolism and cardiovascular events"}, {"measurement": "fibrin deposition on the endothelium", "setting": "[4]", "value": "no significant treatment-related effects"}]}, {"molecule": "N=C(N)NCCCC[C@@H]1NC(=O)CCSSC[C@@H](C(N)=O)NC(=O)[C@@H]2CCCN2C(=O)[C@H](Cc2c[nH]c3ccccc23)NC(=O)[C@H](CC(=O)O)NC(=O)CNC1=O", "note": "[Eptifibatide] ([Mpa][hArg]GDWPC-NH2; disulfide 1-7)", "values": [{"measurement": "platelet aggregation", "setting": "[2]; [8]", "value": "significantly inhibited"}, {"measurement": "inhibitory effect on platelet aggregation and fibrin clot formation", "setting": "[2]; Eptifibatide 2 μg/ml, following treatment with sCollagen, n=4", "value": "comparatively modest"}, {"measurement": "platelet adhesion (image analysis)", "setting": "[2]; Eptifibatide 2 μg/ml, samples treated with TNF-α, n=4", "value": "completely inhibited"}, {"measurement": "platelet coverage in stimulated, pro-thrombotic conditions", "setting": "[2]; FIG. 18E-1, TNF-α or sCollagen with Eptifibatide, n=4 donors", "value": "suppressed"}, {"measurement": "TAT increment associated with TNF-α-induced inflammation", "setting": "[3]; Eptifibatide treatment", "value": "did not inhibit"}, {"measurement": "TAT increment due to sCollagen treatment", "setting": "[3]; Eptifibatide treatment", "value": "entirely suppressed"}, {"measurement": "fibrin clot formation", "setting": "[4]; [8]", "value": "significantly inhibited"}, {"measurement": "fibrin signal (image analysis)", "setting": "[4]; Eptifibatide 2 μg/ml, samples treated with TNF-α", "value": "a significant amount of fibrin signal was still detectable"}, {"measurement": "fibrin deposition in stimulated, pro-thrombotic conditions", "setting": "[4]; FIG. 18E-2, TNF-α or sCollagen with Eptifibatide, n=4 donors", "value": "suppressed"}]}, {"molecule": "B1", "values": [{"measurement": "increase in platelet coverage in some donors", "setting": "[2]; fold-increase over untreated control", "value": "about 2 fold"}, {"measurement": "platelet aggregate formation / platelet coverage", "setting": "[2]", "value": "no significant treatment-related effects; also recorded: not statistically significant"}, {"measurement": "fibrin deposition on the endothelium", "setting": "[4]", "value": "no significant treatment-related effects"}]}]}
